A word on the melting point: it is the temperature, or range, at which the solid turns liquid. In general, EC50 refers to the concentration that produces a half-maximal response.

Series [1] has as its target T1, recombinant human mGluR4a receptors (Homo sapiens, UniProt Q14833).
T1 construct: expressed in transfected cells
Briefly: mGluR4 assay on HEK-expressing human mGluR4: fluorescent cell based Ca2+ mobilization assay (FLIPR). The settings on record: HEK-293 cells expressing hmGluR4; enhancement of EC25 glutamate response; mean of at least three independent experiments in duplicate; read-out: Ca^2+ Flux (mean EC50). From the text: mGluR4 Assay on HEK-Expressing Human mGluR4
The compounds of the present invention are positive allosteric modulators of mGluR4 receptor. Their activity was examined on recombinant human mGluR4a receptors by detecting changes in intracellular Ca^2+ concentration, using the fluorescent Ca^2+-sensitive dye Fluo-4-(AM) and a Fluorometric Imaging Plate Reader (FLIPR, Molecular Devices, Sunnyvale, Calif.).
The cDNA encoding the human metabotropic glutamate receptor (hmGluR4), (accession number NM_000841.1, NCBI Nucleotide database browser), was subcloned into an expression vector containing also the hygromycin resistance gene. In parallel, the cDNA encoding a G protein allowing redirection of the activation signal to intracellular calcium flux was subcloned into a different expression vector containing also the puromycin resistance gene. Transfection of both these vectors into HEK293 cells with PolyFect reagent (Qiagen) according to supplier's protocol, and hygromycin and puromycin treatment allowed selection of antibiotic resistant cells which had integrated stably one or more copies of the plasmids. Positive cellular clones expressing hmGluR4 were identified in a functional assay measuring changes in calcium fluxes in response to glutamate or selective known mGluR4 orthosteric agonists and antagonists. HEK-293 cells expressing hmGluR4 were maintained in media containing DMEM, dialyzed Fetal Calf Serum (10%), Glutamax™ (2 mM), Penicillin (100 units/mL), Streptomycin (100 μg/mL), Geneticin (100 μg/mL) and Hygromycin-B (40 μg/mL) and puromycin (1 μg/mL) at 37° C./5% CO2.
Human mGluR4HEK-293 cells were plated out 24 hours prior to FLIPR^384 assay in black-walled, clear-bottomed, poly-L-ornithine-coated 384-well plates at a density of 25,000 cells/well in a glutamine/glutamate free DMEM medium containing foetal bovine serum (10%), penicillin (100 units/mL) and streptomycin (100 μg/mL) at 37° C./5% CO2.
On the day of the assay, the medium was aspirated and the cells were loaded with a 3 μM solution of Fluo-4-AM (LuBioScience, Lucerne, Switzerland) in 0.03% pluronic acid. After 1 hour at 37° C./5% CO2, the non incorporated dye was removed by washing cell plate with the assay buffer and the cells were left in the dark at room temperature for […] before testing. All assays were performed in a pH 7.4 buffered-solution containing 20 mM HEPES, 143 mM NaCl, 6 mM KCl, 1 mM MgSO4, 1 mM CaCl2, 0.125 mM sulfapyrazone and 0.1% glucose.
After 10 s of basal fluorescence recording, various concentrations of the compounds of the invention were added to the cells. Changes in fluorescence levels were first monitored for 180 s in order to detect any agonist activity of the compounds. Then the cells were stimulated by an EC25 glutamate concentration for an additional 110 s in order to measure enhancing activities of the compounds of the invention. EC25 glutamate concentration is the concentration giving 25% of the maximal glutamate response.
The concentration-response curves of representative compounds of the present invention were generated using the Prism GraphPad software (Graph Pad Inc, San Diego, USA). The curves were fitted to a four-parameter logistic equation: (Y=Bottom+(Top−Bottom)/(1+10^((LogEC50−X)*Hill Slope) allowing the determination of EC50 values.
The Table 3 below represents the mean EC50 obtained from at least three independent experiments of selected molecules performed in duplicate.
A general note: A change in cytosolic calcium serves as a functional read-out for many receptors and channels.

T1 sequence (Q14833 33-912): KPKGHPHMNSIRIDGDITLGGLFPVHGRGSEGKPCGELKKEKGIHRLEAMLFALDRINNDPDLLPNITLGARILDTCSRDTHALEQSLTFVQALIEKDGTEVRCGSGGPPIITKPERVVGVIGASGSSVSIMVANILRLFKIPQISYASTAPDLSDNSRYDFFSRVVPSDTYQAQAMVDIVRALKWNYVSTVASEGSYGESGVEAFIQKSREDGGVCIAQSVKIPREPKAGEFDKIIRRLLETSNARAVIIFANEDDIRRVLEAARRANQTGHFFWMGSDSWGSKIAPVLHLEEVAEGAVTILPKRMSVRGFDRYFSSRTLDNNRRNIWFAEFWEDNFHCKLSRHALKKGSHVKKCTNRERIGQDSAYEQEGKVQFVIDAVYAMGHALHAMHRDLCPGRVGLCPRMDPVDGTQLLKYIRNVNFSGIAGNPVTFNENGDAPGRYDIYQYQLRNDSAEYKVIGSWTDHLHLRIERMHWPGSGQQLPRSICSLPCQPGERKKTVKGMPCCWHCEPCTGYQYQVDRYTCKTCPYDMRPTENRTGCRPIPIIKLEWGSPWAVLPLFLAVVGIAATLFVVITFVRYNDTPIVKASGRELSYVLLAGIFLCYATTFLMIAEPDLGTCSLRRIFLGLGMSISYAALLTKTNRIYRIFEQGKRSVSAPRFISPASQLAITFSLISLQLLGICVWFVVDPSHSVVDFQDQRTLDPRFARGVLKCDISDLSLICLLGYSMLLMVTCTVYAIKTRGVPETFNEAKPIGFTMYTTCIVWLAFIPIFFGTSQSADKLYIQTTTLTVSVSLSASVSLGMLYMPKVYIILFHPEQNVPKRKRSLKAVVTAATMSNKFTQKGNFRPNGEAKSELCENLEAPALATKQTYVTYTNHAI

Take `Fc1cccc(Nc2nc3c(s2)CCCc2[nH]ncc2-3)n1`: the melting point was 314 °C (dec.). The compound `c1ccc(Nc2nc3c(s2)CCc2[nH]ncc2-3)nc1` [Compound 1-1, N-(Pyridin-2-yl)-5,6-dihydro-4H-thiazolo[4,5-e]indazol-2-amine] yielded a melting point of 297 to 299 °C. The concentration for a half-maximal effect (EC50) in series [1] was less than 100 nM. The compound `CC(C)C(=O)n1ncc2c1CCc1sc(Nc3ccccn3)nc1-2` [Compound 1-2, 2-Methyl-1-(2-(pyridin-2-ylamino)-4H-thiazolo[4,5-e]indazol-6(5H)-yl)propan-1-one] yielded a melting point of 167 to 168 °C. Consider `Cc1cccc(Nc2nc3c(s2)CCc2[nH]ncc2-3)n1` [Compound 1-3, N-(6-Methylpyridin-2-yl)-5,6-dihydro-4H-thiazolo[4,5-e]indazol-2-amine], for which the melting point was 280 °C. Besides, the EC50 in series [1] is 100 to 1000 nM.

With `Clc1cccc(Nc2nc3c(s2)CCc2[nH]ncc2-3)n1` [Compound 1-4, N-(6-Chloropyridin-2-yl)-5,6-dihydro-4H-thiazolo[4,5-e]indazol-2-amine], the melting point was greater than 300 °C.

Take `Fc1ccc(F)c(Nc2nc3c(s2)CCc2[nH]ncc2-3)c1` [Compound 1-5, N-(2,5-Difluorophenyl)-5,6-dihydro-4H-thiazolo[4,5-e]indazol-2-amine]: the melting point was 270 °C (dec.). Besides, in series [1], the concentration giving a half-maximal response (EC50) was 100 to 1000 nM. Regarding `Fc1cccc(Nc2nc3c(s2)CCc2[nH]ncc2-3)n1` [Compound 1-6, N-(6-Fluoropyridin-2-yl)-5,6-dihydro-4H-thiazolo[4,5-e]indazol-2-amine], the melting point is greater than 300 °C. Moreover, in series [1], the concentration for a half-maximal effect (EC50) lay in the range of 100 to 1000 nM.

Consider `c1ccc(Nc2nc3c(s2)CCCc2[nH]ncc2-3)nc1` [Compound 1-8, Pyridin-2-yl-(4,5,6,7-tetrahydro-3-thia-1,7,8-triaza-cyclopenta[e]azulen-2-yl)-amine], for which the EC50 in series [1] was less than 100 nM. The compound `CCC1Cc2[nH]ncc2-c2nc(Nc3ccccn3)sc21` (centres unmarked) [Compound 1-9, 4-Ethyl-N-(pyridin-2-yl)-5,6-dihydro-4H-thiazolo[4,5-e]indazol-2-amine] yielded a melting point of 317 to 319 °C. As for `Fc1cccnc1Nc1nc2c(s1)CCc1[nH]ncc1-2` [Compound 1-10, N-(3-Fluoropyridin-2-yl)-5,6-dihydro-4H-thiazolo[4,5-e]indazol-2-amine], the melting point was 300 °C (dec.).

In the case of `Cc1cccc(Nc2nc3c(s2)CCCc2[nH]ncc2-3)n1` [Compound 1-11, (6-Methyl-pyridin-2-yl)-(4,5,6,7-tetrahydro-3-thia-1,7,8-triaza-cyclopenta[e]azulen-2-yl)-amine], the melting point is 312 °C (dec.).

Regarding `Fc1ccc(Nc2nc3c(s2)CCCc2[nH]ncc2-3)nc1` [Compound 1-12, (5-Fluoro-pyridin-2-yl)-(4,5,6,7-tetrahydro-3-thia-1,7,8-triaza-cyclopenta[e]azulen-2-yl)-amine], the melting point is 314 °C (dec.). With `Fc1cccnc1Nc1nc2c(s1)CCCc1[nH]ncc1-2` [Compound 1-13, (3-Fluoro-pyridin-2-yl)-(4,5,6,7-tetrahydro-3-thia-1,7,8-triaza-cyclopenta[e]azulen-2-yl)-amine], the melting point is 300 °C (dec.). Moreover, the concentration for a half-maximal effect (EC50) in series [1] was less than 100 nM. As to `COc1cccc(Nc2nc3c(s2)CCCc2[nH]ncc2-3)n1` [Compound 1-14, (6-Methoxy-pyridin-2-yl)-(4,5,6,7-tetrahydro-3-thia-1,7,8-triaza-cyclopenta[e]azulen-2-yl)-amine], the melting point was 300 °C (dec.). The EC50 in series [1] is 1000 to 10000 nM.

In the case of `Fc1ccc(Nc2nc3c(s2)CCc2[nH]ncc2-3)nc1` [Compound 1-15, N-(5-Fluoropyridin-2-yl)-5,6-dihydro-4H-thiazolo[4,5-e]indazol-2-amine], the melting point is 315 °C (dec.). For `Clc1cccc(Nc2nc3c(s2)CCCc2[nH]ncc2-3)n1` [Compound 1-16, (6-Chloro-pyridin-2-yl)-(4,5,6,7-tetrahydro-3-thia-1,7,8-triaza-cyclopenta[e]azulen-2-yl)-amine], the melting point was 314 °C (dec.). Consider `c1cnc(Nc2nc3c(s2)CCc2[nH]ncc2-3)cn1` [Compound 1-17, N-(Pyrazin-2-yl)-5,6-dihydro-4H-thiazolo[4,5-e]indazol-2-amine], for which the melting point is greater than 330 °C. For `c1n[nH]c2c1-c1nc(NC3CCCC3)sc1CC2` [Compound 1-18, N-Cyclopentyl-5,6-dihydro-4H-thiazolo[4,5-e]indazol-2-amine], the melting point was in the range of 166 to 168 °C. For `c1n[nH]c2c1-c1nc(NC3CCC3)sc1CC2` [Compound 1-20, N-Cyclobutyl-5,6-dihydro-4H-thiazolo[4,5-e]indazol-2-amine], the melting point lay in the range of 144 to 146 °C. Compound `c1n[nH]c2c1-c1nc(NC3CC3)sc1CCC2` [Compound 1-22, Cyclopropyl-(4,5,6,7-tetrahydro-3-thia-1,7,8-triaza-cyclopenta[e]azulen-2-yl)-amine] displayed a melting point of 178 to 182 °C. In the case of `c1n[nH]c2c1-c1nc(NC3CCC3)sc1CCC2` [Compound 1-23, Cyclobutyl-(4,5,6,7-tetrahydro-3-thia-1,7,8-triaza-cyclopenta[e]azulen-2-yl)-amine], the melting point lay in the range of 198 to 221 °C. Same read-out and setting: to `c1n[nH]c2c1-c1nc(NC3CCCC3)sc1CCC2` [Compound 1-24, Cyclopentyl-(4,5,6,7-tetrahydro-3-thia-1,7,8-triaza-cyclopenta[e]azulen-2-yl)-amine] belongs 248 °C (dec.); to `c1cnc(Nc2nc3c(s2)CCCc2[nH]ncc2-3)nc1` [Compound 1-25, Pyrimidin-2-yl-(4,5,6,7-tetrahydro-3-thia-1,7,8-triaza-cyclopenta[e]azulen-2-yl)-amine], 310 °C (dec.). On the same count and under the same terms, with `c1cnc(Nc2nc3c(s2)CCc2[nH]ncc2-3)nc1` [Compound 1-26, N-(Pyrimidin-2-yl)-5,6-dihydro-4H-thiazolo[4,5-e]indazol-2-amine] the figure was 281 to 282 °C.

Take `Cn1ccc(Nc2nc3c(s2)CCCc2[nH]ncc2-3)n1` [Compound 1-27, (1-Methyl-1H-pyrazol-3-yl)-(4,5,6,7-tetrahydro-3-thia-1,7,8-triaza-cyclopenta[e]azulen-2-yl)-amine]: the melting point is 288 to 293 °C. Same read-out and setting: with `Cc1ccnc(Nc2nc3c(s2)CCc2[nH]ncc2-3)n1` [Compound 1-29, N-(4-Methylpyrimidin-2-yl)-5,6-dihydro-4H-thiazolo[4,5-e]indazol-2-amine] the figure was 283 °C (dec.); with `Cc1ccnc(Nc2nc3c(s2)CCCc2[nH]ncc2-3)n1` [Compound 1-30, (4-Methyl-pyrimidin-2-yl)-(4,5,6,7-tetrahydro-3-thia-1,7,8-triaza-cyclopenta[e]azulen-2-yl)-amine], 297 °C (dec.); with `CC1(C)Cc2[nH]ncc2-c2nc(Nc3ncccn3)sc21` [Compound 1-32, 4,4-Dimethyl-N-(pyrimidin-2-yl)-5,6-dihydro-4H-thiazolo[4,5-e]indazol-2-amine], 298 to 306 °C. The compound `CC1Cc2[nH]ncc2-c2nc(Nc3ncccn3)sc21` (centres unmarked) [Compound 1-33, 4-Methyl-N-(pyrimidin-2-yl)-5,6-dihydro-4H-thiazolo[4,5-e]indazol-2-amine] yielded a melting point greater than 373 °C.

These data come from patent US8697744B2, “Substituted 5,6-dihydro-4H-thiazolo[4,5-E]indazoles and their use as positive allosteric modulators of metabotropic glutamate receptors” (Addex Pharma S.A., priority 2009, dated 2014).
